Patent US7265103B2, “Substituted amino isoxazoline derivatives and their use as anti-depressants” (Janssen Pharmaceutica NV., priority 2002, dated 2007)
Structures can show the parent of a compound that is named as a salt.

Columns and labels:
hα2A receptor = molecular target: T1, hα2A receptor (Homo sapiens, UniProt P08913); test: Radioligand binding experiment for α2A-adrenergic receptor ([3H]-raulwolscine); settings: CHO cell membranes with human α2A receptor, [3H]raulwolscine 1 nM; read-out: pIC50 α2A (converted)
T1 construct: expressed in transfected cells; host or cells: CHO cells
T1 sequence (P08913 1-465): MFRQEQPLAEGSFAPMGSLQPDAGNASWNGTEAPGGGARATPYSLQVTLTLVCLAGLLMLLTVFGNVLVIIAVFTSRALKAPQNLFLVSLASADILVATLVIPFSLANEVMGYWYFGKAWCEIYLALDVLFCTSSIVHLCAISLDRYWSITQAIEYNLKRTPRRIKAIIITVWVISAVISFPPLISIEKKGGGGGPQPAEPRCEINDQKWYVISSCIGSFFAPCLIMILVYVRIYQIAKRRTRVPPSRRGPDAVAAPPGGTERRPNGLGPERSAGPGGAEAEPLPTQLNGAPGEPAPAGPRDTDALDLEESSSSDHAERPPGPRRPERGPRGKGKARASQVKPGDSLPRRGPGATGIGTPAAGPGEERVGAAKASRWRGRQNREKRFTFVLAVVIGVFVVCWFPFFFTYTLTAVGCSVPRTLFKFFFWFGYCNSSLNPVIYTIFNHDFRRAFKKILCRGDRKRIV
Procedure, shortened: (§1)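 Membranes from CHO cells stably expressing human α2A or α2C receptors (sodium butyrate-induced) incubated with 1 nM [3H]raulwolscine in 25 mM glycylglycine pH 8.0 for 60 min at 25° C, then filtered. Non-specific binding defined with 1 μM oxymetazoline (α2A) or 1 μM spiroxatrine (α2C); pIC50 from sigmoidal competition curves.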

hα2C receptor = molecular target: T2, hα2C receptor (Homo sapiens, UniProt P18825); test: Radioligand binding experiment for α2C-adrenergic receptor ([3H]-raulwolscine); settings: CHO cell membranes with human α2C receptor, [3H]raulwolscine 1 nM; read-out: pIC50 α2C (converted)
T2 construct: expressed in transfected cells; host or cells: CHO cells
T2 sequence (P18825 1-462): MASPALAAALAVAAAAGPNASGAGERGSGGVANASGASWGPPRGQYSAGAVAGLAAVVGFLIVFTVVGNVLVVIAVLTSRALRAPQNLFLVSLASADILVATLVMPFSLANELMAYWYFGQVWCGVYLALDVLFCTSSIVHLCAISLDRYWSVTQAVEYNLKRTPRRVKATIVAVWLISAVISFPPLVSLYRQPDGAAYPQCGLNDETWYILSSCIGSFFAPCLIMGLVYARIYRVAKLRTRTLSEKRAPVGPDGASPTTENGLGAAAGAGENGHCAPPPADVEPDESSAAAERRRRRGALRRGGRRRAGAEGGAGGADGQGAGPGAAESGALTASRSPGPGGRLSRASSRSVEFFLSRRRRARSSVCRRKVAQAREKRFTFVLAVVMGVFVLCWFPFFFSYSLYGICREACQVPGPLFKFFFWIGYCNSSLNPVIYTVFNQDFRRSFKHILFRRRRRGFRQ
Procedure, shortened: as §1

h5-HT transporter = molecular target: T3, h5-HT transporter (Homo sapiens, UniProt P31645); test: Radioligand binding experiment for 5-HT transporter ([3H]paroxetine); settings: human platelet membranes, [3H]paroxetine 0.5 nM
T3 construct: Human platelet membranes (Oceanix Biosciences Corporation, Hanover, Md., USA) were thawed; tissue Oceanix Biosciences Corporation; host or cells: human platelet membranes
Procedure, shortened: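 Competition binding on human platelet membranes (50-100 μg protein) in 50 mM Tris-HCl, 120 mM NaCl, 5 mM KCl with 0.5 nM [3H]paroxetine, 60 min at 25 °C, filtration and scintillation counting. Non-specific binding defined with 1 μM imipramine; pIC50 from nonlinear sigmoidal fits of percent total binding.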

T3 sequence (P31645 whole entry): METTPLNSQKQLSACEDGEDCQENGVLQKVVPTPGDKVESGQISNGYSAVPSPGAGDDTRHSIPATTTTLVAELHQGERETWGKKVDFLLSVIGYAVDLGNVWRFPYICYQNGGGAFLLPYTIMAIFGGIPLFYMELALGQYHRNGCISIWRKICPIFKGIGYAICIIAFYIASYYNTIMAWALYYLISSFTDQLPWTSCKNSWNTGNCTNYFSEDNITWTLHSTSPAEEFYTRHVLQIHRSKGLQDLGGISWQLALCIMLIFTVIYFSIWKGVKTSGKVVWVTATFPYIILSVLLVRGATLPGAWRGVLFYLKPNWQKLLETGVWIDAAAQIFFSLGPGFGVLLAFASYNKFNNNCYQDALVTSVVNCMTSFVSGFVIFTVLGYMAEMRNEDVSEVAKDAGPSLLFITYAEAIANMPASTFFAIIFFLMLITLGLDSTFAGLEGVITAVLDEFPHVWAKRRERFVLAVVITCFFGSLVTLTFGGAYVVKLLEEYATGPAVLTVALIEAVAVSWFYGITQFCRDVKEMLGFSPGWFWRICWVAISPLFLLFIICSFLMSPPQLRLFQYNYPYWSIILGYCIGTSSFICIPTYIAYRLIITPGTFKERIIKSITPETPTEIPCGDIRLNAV

SMILES | IC50 (hα2A receptor) [µM] | IC50 (hα2C receptor) [µM] | IC50 (h5-HT transporter) [µM] | melting point [°C]
CC(=Cc1ccccc1)CN1CCN(CC2ON=C3c4ccc(Nc5ccccc5)cc4OCC32)CC1 (stereo not drawn) [Compound 40] | 0.0158 | 0.01 | 0.0501 | 127.1 to 131.4
C/C(=C\CN1CCN(CC2ON=C3c4cc5c(cc4OCC32)NCCO5)CC1)c1ccccc1 (stereo not drawn) [Compound 91] | 0.00631 | 0.00158 | 0.0316 | 130.4 to 146.4
C/C(=C\c1ccccc1)CN1CCN(CC2ON=C3c4cc(N5CCOCC5)ccc4OCC32)CC1 (stereo not drawn) [Compound 4] | 0.0126 | 0.00251 | > 1 | 121.8 to 125.9
CC(=Cc1ccccc1)CN1CCN(CC2ON=C3c4ccc(NC(=O)NC(C)(C)C)cc4OCC32)CC1 (stereo not drawn) [Compound 61] | 0.00794 | 0.002 | 0.02 | 98.4 to 113.5
CC(=Cc1ccccc1)CN1CCN(CC2ON=C3c4ccc(Nc5ccc(C)c(C)c5)cc4OCC32)CC1 (stereo not drawn) [Compound 46] | 0.0631 | 0.0398 | 0.316 | 138.9 to 151.3
Clc1ccc(CN2CCN(CC3ON=C4c5cc6c(cc5OCC43)NCCO6)CC2)cc1 (stereo not drawn) [Compound 94] | 0.316 | 0.0316 | 0.126 | 186.5 to 198
C/C(=C\c1ccc(F)cc1)CN1CCN(CC2ON=C3c4cc5c(cc4OCC32)NCCO5)CC1 (stereo not drawn) [Compound 90] | 0.0158 | 0.00158 | 0.0158 | 160.6 to 172.2
C/C(=C\c1ccccc1)CN1CCN(CC2ON=C3c4ccc(NCc5ccccc5)cc4OCC32)CC1 (stereo not drawn) [Compound 2] | 0.0158 |  | 0.0316 | 108.9 to 114.7
CC(=Cc1ccccc1)CN1CCN(CC2ON=C3c4ccc(NC(=O)NC5CCCCC5)cc4OCC32)CC1 (stereo not drawn) [Compound 62] | 0.0251 | 0.00631 | 0.0398 | 121.1 to 136.5
CC(=Cc1ccccc1)CN1CCN(CC2ON=C3c4ccc(NC(=O)Nc5ccccc5)cc4OCC32)CC1 (stereo not drawn) [Compound 64] | 0.0251 | 0.0158 | 0.251 | 180.3 to 181.6
CC(=Cc1ccc(F)cc1)CN1CCN(CC2ON=C3c4ccc(N5CCOCC5)cc4OCC32)CC1 (stereo not drawn) [Compound 84] | 0.00631 | 0.00126 | 0.0251 | 179.2 to 188.8
C/C(=C\c1cccc(F)c1)CN1CCN(CC2ON=C3c4cc5c(cc4OCC32)NCCO5)CC1 (stereo not drawn) [Compound 89] | 0.00398 | 0.001 | 0.00398 | 145.4 to 153.1
CC(=Cc1ccccc1)CN1CCN(CC2ON=C3c4ccc(Nc5ccc(F)cc5)cc4OCC32)CC1 (stereo not drawn) [Compound 42] | 0.0316 | 0.0158 | 0.126 | 130.8 to 134.1
CC(=Cc1ccccc1)CN1CCN(CC2ON=C3c4ccc(N(S(C)(=O)=O)S(C)(=O)=O)cc4OCC32)CC1 (stereo not drawn) [Compound 66] | 0.00501 | 0.000501 | 0.0398 | 201.8 to 202.9
c1ccc2cc(CN3CCN(CC4ON=C5c6cc7c(cc6OCC54)NCCO7)CC3)ccc2c1 (stereo not drawn) [Compound 92] | 0.02 | 0.00251 | 0.00501 | 85.3 to 103.9
COc1ccc(Nc2ccc3c(c2)OCC2C3=NOC2CN2CCN(CC(C)=Cc3ccc(F)cc3)CC2)cc1 (stereo not drawn) [Compound 43] | 0.398 | 0.126 | 0.631 | 131.7 to 134.5
CC(=Cc1ccc(F)cc1)CN1CCN(CC2ON=C3c4ccc(N5CCN(Cc6ccccc6)CC5)cc4OCC32)CC1 (stereo not drawn) [Compound 80] | 0.126 | 0.00398 | 0.126 | 166.4 to 178.2

SMILES | IC50 (hα2A receptor) [µM] | IC50 (hα2C receptor) [µM] | IC50 (h5-HT transporter) [µM] | melting point [°C]
CC(=Cc1ccc(F)cc1)CN1CCN(CC2ON=C3c4ccc(N5CCN(C)CC5)cc4OCC32)CC1 (stereo not drawn) [Compound 77] | 0.0398 | 0.00251 | 0.00316 | 147.3 to 150.6
C/C(=C\c1ccccc1)CN1CCN(CC2ON=C3c4ccc(N)cc4OCC32)CC1 (stereo not drawn) [Compound 5] | 0.00251 | 0.00398 | 0.1 | 134.1 to 136.2
CCOC(=O)C1CCN(c2ccc3c(c2)OCC2C3=NOC2CN2CCN(CC(C)=Cc3ccc(F)cc3)CC2)CC1 (stereo not drawn) [Compound 72] | 0.1 | 0.02 | 0.631 | 156.4 to 161
CC(=Cc1ccc(F)cc1)CN1CCN(CC2ON=C3c4ccc(NCCN5CCCC5)cc4OCC32)CC1 (stereo not drawn) [Compound 28] | 0.0631 | 0.00398 | 0.00316 | 108.3 to 121.8
COc1cc2c(cc1NCCN(C)C)OCC1C2=NOC1CN1CCN(C/C(C)=C/c2ccccc2)CC1 (stereo not drawn) [Compound 9] | 0.00501 | 1 | 0.00501 | 154.5 to 157.9
CC(=Cc1ccc(F)cc1)CN1CCN(CC2ON=C3c4ccc(N5CCCC5)cc4OCC32)CC1 (stereo not drawn) [Compound 70] | 0.0126 | 0.00794 | 0.1 | 194.7 to 204.9
CC(=Cc1ccccc1)CN1CCN(CC2ON=C3c4ccc(N(C)c5ccccc5)cc4OCC32)CC1 (stereo not drawn) [Compound 41] | 0.0251 | 0.0251 | 0.158 | 125.9 to 139.7
COCC(=O)N1CCOc2cc3c(cc21)OCC1C3=NOC1CN1CCN(C/C(C)=C/c2ccccc2)CC1 (stereo not drawn) [Compound 15] | 0.00316 | 0.000794 | 0.01 | 118.9 to 127.6
CCOC(=O)CNC(=O)Nc1ccc2c(c1)OCC1C2=NOC1CN1CCN(CC(C)=Cc2ccccc2)CC1 (stereo not drawn) [Compound 63] | 0.00794 | 0.00158 | 0.0316 | 175.3 to 177
COc1cc2c(cc1N1CCOCC1)OCC1C2=NOC1CN1CCN(CC(C)=Cc2ccccc2)CC1 (stereo not drawn) [Compound 82] | 0.00158 | 0.00126 | 0.0398 | 143.5 to 145.9
COc1ccc(NC(=O)Nc2ccc3c(c2)OCC2C3=NOC2CN2CCN(C/C(C)=C/c3ccccc3)CC2)cc1OC (stereo not drawn) [Compound 7] | 0.0158 | 0.00501 | 0.0316 | 202.2 to 207.1
CC(=Cc1ccccc1)CN1CCN(CC2ON=C3c4ccc(Nc5ccccc5C)cc4OCC32)CC1 (stereo not drawn) [Compound 45] | 0.02 | 0.02 | 0.0794 | 133.3 to 148.9
CC(=Cc1ccc(F)cc1)CN1CCN(CC2ON=C3c4ccc(N5CCN(c6ccccc6)CC5)cc4OCC32)CC1 (stereo not drawn) [Compound 79] | 0.251 | 0.00794 | 0.2 | 203.5 to 206.2
CC(=Cc1ccc(F)cc1)CN1CCN(CC2ON=C3c4ccc(N5CCN(CC=Cc6ccccc6)CC5)cc4OCC32)CC1 (stereo not drawn) [Compound 81] | 0.126 | 0.02 | 0.0631 | 154.9 to 160.4
CNCCNc1ccc2c(c1)OCC1C2=NOC1CN1CCN(CC(C)=Cc2ccc(F)cc2)CC1 (stereo not drawn) (as salt: HCl) [Compound 20] |  |  |  | 199 to 235.5
CC(=Cc1ccccc1)CN1CCN(CC2ON=C3c4ccc(Nc5cccc(C#N)c5)cc4OCC32)CC1 (stereo not drawn) [Compound 44] | 0.0158 | 0.02 | 0.0158 | 152.7 to 162.6
CC(=Cc1ccc(F)cc1)CN1CCN(CC2ON=C3c4ccc(N5CCCCC5)cc4OCC32)CC1 (stereo not drawn) [Compound 71] | 0.0631 | 0.00631 | 0.1 | 168.2 to 169.4
